A value given as a limit tells only on which side of the number the result lay.

The test system of one assay is OVCAR-5 cells. Description: Sulforhodamin B viability assay. The assay is classed as cell-based. The settings on record: OVCAR-5, Ovarian Cancer; negative values represent cell mortality percentage.
A further assay deals with BT-549 cells. As to the kind of experiment: Sulforhodamin B viability assay. The assay is classed as cell-based. The conditions noted are these: BT-549, Breast Cancer; negative values represent cell mortality percentage.
Another assay concerns HL-60(TB) cells. As to the kind of experiment: Sulforhodamin B viability assay. The class given is cell-based. The settings on record: Leukemia, negative values represent cell mortality percentage.
Assay [1] relates to eight distinct cancer cell lines. As to the kind of experiment: Sulforhodamin B viability assay, all cell lines. The settings on record: across all the eight cell lines tested. The assay is classed as cell-based.
For another assay, the system named is SF-539 cells. Description: Sulforhodamin B viability assay. The class given is cell-based. The settings on record: SF-539, CNS Cancer; negative values represent cell mortality percentage.
A further assay relates to SK-MEL-5 cells. Description: Sulforhodamin B viability assay. The class given is cell-based. The conditions noted are these: SK-MEL-5, Melanoma; negative values represent cell mortality percentage.
A further assay deals with UO-31 cells. Description: Sulforhodamin B viability assay. The class given is cell-based. The settings on record: UO-31, Renal Cancer; negative values represent cell mortality percentage.
The subject of a further assay is HT29 cells. As to the kind of experiment: Sulforhodamin B viability assay. The class given is cell-based. The conditions noted are these: HT29, Colon Cancer; negative values represent cell mortality percentage.
In the next assay the test system is NCI-H23 cells. Description: Sulforhodamin B viability assay. The assay is classed as cell-based. The settings on record: NCI-H23, Non-Small Cell Lung Cancer; negative values represent cell mortality percentage.
A further assay concerns the target recombinant human GMPS (Homo sapiens (Human), UniProt P49915). As to the kind of experiment: enzymatic assay against recombinant GMPS, UV absorbance at 290 nm. The conditions noted are these: for IC50 against GMPS, in words: recombinant GMPS; for IC50: recombinant human GMPS.

Sequence of recombinant human GMPS (P49915 whole entry): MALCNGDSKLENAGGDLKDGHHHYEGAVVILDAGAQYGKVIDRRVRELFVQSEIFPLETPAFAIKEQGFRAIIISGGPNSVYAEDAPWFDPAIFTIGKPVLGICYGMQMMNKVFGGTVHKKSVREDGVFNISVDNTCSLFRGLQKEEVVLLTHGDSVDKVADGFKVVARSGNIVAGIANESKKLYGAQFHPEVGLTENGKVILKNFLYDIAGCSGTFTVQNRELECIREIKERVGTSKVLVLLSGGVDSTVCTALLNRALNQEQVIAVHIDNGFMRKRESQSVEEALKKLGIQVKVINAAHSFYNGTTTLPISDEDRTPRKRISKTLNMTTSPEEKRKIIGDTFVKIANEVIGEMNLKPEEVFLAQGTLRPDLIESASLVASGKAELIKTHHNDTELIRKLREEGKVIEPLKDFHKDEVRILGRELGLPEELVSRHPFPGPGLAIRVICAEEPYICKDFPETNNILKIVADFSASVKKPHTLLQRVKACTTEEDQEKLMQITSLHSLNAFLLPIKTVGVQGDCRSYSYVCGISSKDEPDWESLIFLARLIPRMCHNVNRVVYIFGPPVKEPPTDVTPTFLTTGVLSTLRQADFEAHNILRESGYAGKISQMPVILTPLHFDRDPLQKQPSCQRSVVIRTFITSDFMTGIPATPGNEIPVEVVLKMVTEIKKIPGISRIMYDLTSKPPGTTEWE
Method for recombinant human GMPS: The potency of the five compounds was tested against recombinant GMPS in an enzymatic assay by monitoring UV absorbance at 290 nm and by determining an IC50.

Turning to `C#CCOc1cccc(Nc2ncnc3ccc(NC(=O)CCl)cc23)c1` [Compound 1, 2-chloro-N-(4-((3-(prop-2-yn-1-yloxy)phenyl)amino)quinazolin-6-yl) acetamide], the Cell survival is reported as −70.1% in the assay on OVCAR-5 cells; −68.9% in the assay on BT-549 cells; −58.4% in the assay on HL-60(TB) cells; −86.6% with SF-539 cells; −92.8% in the assay with SK-MEL-5 cells; −87.8% in the assay on UO-31 cells. The Cell survival is −78.6% in the assay with HT29 cells and −66.8% in the assay on NCI-H23 cells. Moreover, the cell death in assay [1] is recorded as more than 50%.
As usually defined, the IC50 is the concentration that inhibits the measured activity by half. Take `COc1cccc(Nc2ncnc3ccc(NC(C)=O)cc23)c1` [Compound 3, N-(4-((3-methoxyphenyl)amino)quinazolin-6-yl) acetamide]: at recombinant human GMPS, the “IC50 against GMPS, in words” value was “less active” and the IC50 is more than 1000 nM.
In the case of `C#CCOc1cccc(C(=O)Nc2cccc(NC(=O)CCl)c2)c1` [Compound 5, N-(3-(2-chloroacetamido)phenyl)-3-(prop-2-yn-1-yloxy)benzamide], at recombinant human GMPS, the “IC50 against GMPS, in words” value is “less active” and the IC50 is more than 1000 nM.

These data come from patent publication US20250263383A1, “NOVEL INHIBITORS OF GUANOSINE MONOPHOSPHATE SYNTHETASE AS THERAPEUTIC AGENTS” (University of Southern California, priority 2018, published 2025).
